Key:
CAII [1] = target: T1, CAII (Homo sapiens, UniProt P00918); experiment: Kinetic analyses of covalent modification, intact protein LC-MS; type: binding; parameters: purchased Sigma Aldrich C6624-500UG; host or cells: E. coli; conditions: 0.5 μM CAII; 5-100 μM SF; 0-24 h; 20 °C
Protocol: The kinetics of binding were investigated by incubation of the resynthesized and purified SFs 2b–e with CAII at a range of concentrations and analysis by intact protein LC–MS over a 24 h period (see Figure S9). The concentration–response was analyzed based on a two-step model of reversible ligand (L) binding and subsequent irreversible covalent modification of the protein (P) (P + L ⇌ P·L → PL) (see Figure S10).[24] Time courses were fit to a single exponential function to give a kobs for each concentration (Figure 3d). These were then fitted using a Michaelis–Menten model to determine kinact (corresponding to the rate of covalent-bond formation) and KI (corresponding to the recognition of the ligand for the protein pocket) (Figure 3e,f). […]. This is consistent with the strong binding of aryl sulfonamides to the CAII Zn^2+ binding pocket.[33] […] The slow rate of the reaction may be attributed to a suboptimal trajectory of the SF group toward the His64 residue in the reversible bound conformation and/or low nucleophilicity of the residue.[14]
The (resynthesized and purified) SF hits (2b–e, 10 mM) were plated into seven 384-well plates with DMSO to make up identical plates with final concentrations of 100, 50, 20, 10, or 5 μM after adding 15 μL of protein stock solution per well. The percentage of DMSO was kept constant. Purified CAII was subsequently added across all plates. Final concentrations were 0.5 μM protein; 100, 50, 20, 10, or 5 μM SF. The plates were sealed and centrifuged, and the first six plates were immediately queued for analysis by intact protein LC–MS at a temperature of 20 °C with the final plate paused for a 24 h timepoint.
5. CAII – kinetic analyzes
5.1. Protocol for kinetic analyzes (CAII)
The (resynthesized and purified) SF hits (2b–e) were plated into seven Greiner 384 white low volume plate from a 10 mM source in DMSO. Differing volumes were added such that the final concentrations for each compound would be: 100, 50, 20, 10, or 5 µM after adding 15 µL of protein stock solution per well. Volumes of DMSO were made to be consistent for every well. Purified CAII diluted from original stock into a buffer made up of HEPES (pH 7.5, 25 mM) and NaCl (50 mM) in distilled MS-grade water (15 µL per well) was subsequently added across the plates. Final concentrations: 0.5 µM protein; 100, 50, 20, 10, or 5 µM SF. The plates were sealed, centrifuged (1 min, 1000 rpm), and the first six plates were immediately queued for analysis by intact protein LC-MS at a temperature of 20 °C with the final plate paused for a 24 h timepoint. The resulting modification yields were plotted in GraphPad Prism (Version 5.0.4) software against the time of sampling.11 Non-linear regression analyzes were conducted using a ‘one-phase association’ model, with the y=0 value constrained to ‘0’ and plateau value constrained to ‘100’. The observed rate constants (kobs, value ‘K’ in GraphPad) were extracted for each compound at each concentration, then replotted against the corresponding compound concentration. Further non-linear regression analyzes were conducted using a ‘Michaelis-Menten’ model, from which kinact values (‘Vmax’ in GraphPad) and KI values (‘Km’) were extracted. […]
To a Labcyte 384LDV plate containing 96 amine functionalized fragments (10 mM) in DMSO (5 µL per well) was added a stock solution of OSu 2a (10 mM) and NEM (30 mM) in DMSO (5 µL per well). The plate was sealed, centrifuged (1 min, 1000 rpm), and allowed to sit at room temperature for 1 h. After the reaction (assumed product concentration: 5 mM), a Labcyte ECHO© 555 Liquid Handler was used to transfer the library of SFs to a Greiner 384 white low volume plate. […]

CAII [2] = target: T1, CAII; experiment: Identification of site of covalent modification by tandem MS; parameters: purchased Sigma Aldrich C6624-500UG; host or cells: E. coli; conditions: for major site of covalent modification: 2 μM CAII, 50 μM SF, 24 h, 20 °C, trypsin digest LC-MS/MS; for minor site of covalent modification: N-terminal peptide 1MSHHWGYGK9
Text: Tandem MS analyses were subsequently employed for identification of the amino acid residue(s) that was covalently modified. Samples of CAII modified by the resynthesized and purified SFs 2d and 2e were digested using trypsin and analyzed by LC–MS/MS. This identified peptides 59ILNNGH*AFNVEFDDSQDKAVLK80 and 59ILNNGH*AFNVEFDDSQDK76 as the major site(s) of modification on His64 for both 2d (366 Da) (see Figure S6) and 2e (380 Da) (Figure 3b), respectively. Further to this, minor modifications were observed on the N-terminal peptide 1MSHHWGYGK9 at His3 (2d and 2e) and Tyr7 (2d only).
The (resynthesized and purified) SF hits (2d and 2e, 10 mM) were plated into a 384-well plate. Purified CAII was subsequently added across the plate. Final concentrations: 2 μM protein; 50 μM SF. The plate was sealed, centrifuged, and incubated at 20 °C for 24 h, and 15 μL aliquots were subsequently removed and analyzed by intact protein LC–MS. The remaining samples (1 μg) were separated by sodium dodecyl sulfate-polyacrylamide gel electrophoresis to remove excess unbound compounds. Gels were stained with colloidal Comassie InstantBlue, and bands corresponding to CAII were excised, reduced with TCEP (10 mM, 65 °C, 30 min), and alkylated with iodoacetamide (10 mM, rt, 30 min, dark). Samples were digested with trypsin (1:10 E/S, 37 °C, 16 h) in ammonium bicarbonate (100 mM). After removal of the supernatant, peptides were extracted using acetonitrile. Combined supernatants were centrifuged and acidified prior to injection into the LC–MS/MS system. Tandem MS spectra were searched for peptide matches against the sequence for CAII. Raw files were searched using trypsin as the enzyme. Masses corresponding to [SF – HF] were allowed as variable modification(s) on cysteine, histidine, lysine, tyrosine, serine, and threonine as well as the protein N-terminus. MS/MS spectra were manually validated and annotated. […]
4.2. Identification of the site of covalent modification by tandem MS (CAII)
The (resynthesized and purified) SF hits (2d and 2e) were plated into a Greiner 384 PP F-bottom plate from a 10 mM source in DMSO.
Purified CAII diluted from original stock into a buffer made up of HEPES (pH 7.5, 25 mM) and NaCl (50 mM) in distilled MS-grade water (50 µL per well) was subsequently added across the plate. Final concentrations: 2 µM protein; 50 µM SF. The plate was sealed, centrifuged (1 min, 1000 rpm), incubated at 20 °C for 24 h, and 15 µL aliquots were subsequently removed and analyzed by intact protein LC-MS. The remaining samples (1 μg) were separated by SDS-PAGE to remove excess unbound compound. Gels were stained with colloidal Comassie InstantBlue and bands corresponding to CAII were excised, reduced with 10 mM TCEP (65 °C, 30 mins), and alkylated with 10 mM iodoacetamide (r.t., 30 mins, dark). […]

| Compound | Ki (CAII [1]) [µM] | kinact (CAII [1]) [s⁻¹] | kinact/KI (CAII [1]) [M⁻¹ s⁻¹] | major site of covalent modification (CAII [2]) | minor site of covalent modification (CAII [2]) | KI (inactivation) (CAII [1]) [µM] |
| --- | --- | --- | --- | --- | --- | --- |
| NS(=O)(=O)c1cccc(CNC(=O)Cc2ccc(S(=O)(=O)F)cc2)c1 [2d] | < 5 | 3e-05 | > 6.1 | His64 | His3 and Tyr7 |  |
| NS(=O)(=O)Cc1cccc(CNC(=O)Cc2ccc(S(=O)(=O)F)cc2)c1 [2c] |  | 3.3e-05 | 2 |  |  | 16 |
| CC(NC(=O)Cc1ccc(S(=O)(=O)F)cc1)c1cccc(S(N)(=O)=O)c1 (stereo not shown) [2b] |  | 3.2e-05 | 3.6 |  |  | 8.9 |
| NS(=O)(=O)c1ccc(CCNC(=O)Cc2ccc(S(=O)(=O)F)cc2)cc1 [2e] | < 5 | 1.8e-05 | > 3.6 | His64 | His3 |  |

Reference: publication PMC10510102, “Efficient Ligand Discovery Using Sulfur(VI) Fluoride Reactive Fragments” (ACS Chemical Biology, 2023)
